Measured values as given in patent publication US12251388B1, “Methods of treating ischemic stroke at risk for cerebral or cerebellar edema” (REMEDY PHARMACEUTICALS, INC., priority 2024, dated 2025).

System: large hemispheric infarction (LHI) patients at high risk for cerebral edema
Assay: CHARM trial: mRS score at 90 days, shift analysis on 5-category ordinal scale (0/1 and 5/6 collapsed), intravenous glibenclamide versus placebo
Format: in vivo, human
Settings: for Common Odds Ratio: mITT population (aged ≤70 years), drug vs placebo
Excerpt: The CHARM trial evaluated the safety and efficacy of intravenous glibenclamide as a treatment for large hemispheric infarction (LHI) patients at high risk for cerebral edema.
Patients meeting the following criteria were included: • A clinical diagnosis of acute ischemic stroke in the middle cerebral artery (MCA) territory. • A large hemispheric infarction defined as; lesion volume of 80 to 300 centimeters cubed (cm^3) on magnetic resonance imaging (MRI) diffusion-weighted imaging (DWI), or computed tomography perfusion (CTP), or an Alberta Stroke Program Early CT Score (ASPECTS) of 1 to 5 with involvement of at least 2 defined cortical regions. • Screening National Institutes of Health Stroke Scale (NIHSS)>=10. • At the time of randomization, and in the Investigator's judgement, it must be feasible for study drug treatment infusion to be initiated no later than 10 hours after time of symptom onset, if known, or the time last known normal. • Participants who wake with stroke may be included if neurological and other exclusion criteria are satisfied. The time of stroke onset is to be taken as the midpoint between sleep onset (or last known to be normal) and time of waking.
Patients meeting the following criteria were excluded: • Participant is likely to have supportive care withdrawn on the first day. • Commitment to decompressive craniectomy (DC) prior to enrollment. • Evidence of concurrent infarction in the contralateral hemisphere sufficiently serious so as to affect functional outcome. Pre-Specified Primary Endpoint
Modified Rankin Scale (mRS) score at 90 days analyzed as a shift analysis using a 5-category ordinal scale with 0/1 and 5/6 collapsed. The primary efficacy analysis was pre-specified to be conducted in participants 18-70 years of age (inclusive) who were randomized and receive study treatment (the modified intent-to-treat [mITT] population].
Five hundred thirty-five subjects were enrolled, with 268 treated with placebo and 267 treated with intravenous glyburide. The mITT population (the primary analysis population), those participants aged≤70 years who received any study drug, consisted of 431 subjects.
An analysis was conducted in the mITT population to examine effects of limits on the NIHSS. […] A common odds ratio of greater than 1 indicates a positive drug effect and in the group having an NIHSS of ≤20, the common odds ratio exceeded 1.7, indicating a robust effect in favor of the drug.

[1] = mRS scores 5 and 6 combined, baseline NIHSS ≥10 and ≤20

COc1ccc(Cl)cc1C(=O)NCCc1ccc(S(=O)(=O)NC(=O)NC2CCCCC2)cc1 [intravenous glyburide, glyburide]
Common Odds Ratio (NIHSS cutoff ≤18, mRS at 90 days, n=197): 2.027
Common Odds Ratio (NIHSS cutoff ≤19, mRS at 90 days, n=232): 1.846
Common Odds Ratio (NIHSS cutoff ≤21, mRS at 90 days, n=303): 1.260
Common Odds Ratio (NIHSS cutoff ≤22, mRS at 90 days, n=328): 1.144
Common Odds Ratio (NIHSS cutoff ≤23, mRS at 90 days, n=352): 1.142
lesion volume at the "no effect" level of the treatment effect (mRS) [1]: approximately 140 cm^3
lesion volume at which a robust treatment effect (mRS) is seen [1]: ≤ 125 cm^3
